US10758534B2 (Vertex Pharmaceuticals Incorporated, priority 2014, dated 2020)

Molecular target: T1, F508del (Homo sapiens, UniProt P13569, DEL508-508)
T1 construct: expressed in transfected cells
Experiment: Protocol 1: membrane potential optical assay (FLIPR III, voltage sensing dye), identification of potentiator compounds
Type: cell-based
Settings: Table 3, compounds of Table 1
Source text: Membrane Potential Optical Methods for Assaying F508del Modulation Properties of Compounds
The assay utilizes fluorescent voltage sensing dyes to measure changes in membrane potential using a fluorescent plate reader (e.g., FLIPR III, Molecular Devices, Inc.) as a readout for increase in functional F508del in NIH 3T3 cells. The driving force for the response is the creation of a chloride ion gradient in conjunction with channel activation by a single liquid addition step after the cells have previously been treated with compounds and subsequently loaded with a voltage sensing dye.
Identification of Potentiator Compounds
To identify potentiators of F508del, a double-addition HTS assay format was developed. This HTS assay utilizes fluorescent voltage sensing dyes to measure changes in membrane potential on the FLIPR III as a measurement for increase in gating (conductance) of F508del in temperature-corrected F508del NIH 3T3 cells. The driving force for the response is a Cl^− ion gradient in conjunction with channel activation with forskolin in a single liquid addition step using a fluorescent plate reader such as FLIPR III after the cells have previously been treated with potentiator compounds (or DMSO vehicle control) and subsequently loaded with a redistribution dye.
Bath Solution #1: (in mM) NaCl 160, KCl 4.5, CaCl2 2, MgCl2 1, HEPES 10, pH 7.4 with NaOH.
Chloride-free bath solution: Chloride salts in Bath Solution #1 (above) are substituted with gluconate salts.
NIH3T3 mouse fibroblasts stably expressing F508del are used for optical measurements of membrane potential. The cells are maintained at 37° C. in 5% CO2 and 90% humidity in Dulbecco's modified Eagle's medium supplemented with 2 mM glutamine, 10% fetal bovine serum, 1×NEAA, β-ME, 1× pen/strep, and 25 mM HEPES in 175 cm^2 culture flasks. For all optical assays, the cells were seeded at ˜20,000/well in 384-well matrigel-coated plates and cultured for 2 hrs at 37° C. before culturing at 27° C. for 24 hrs. for the potentiator assay. For the correction assays, the cells are cultured at 27° C. or 37° C. with and without compounds for 16-24 hours.

T1 sequence (P13569 with tags, fused parts or gaps DEL508-508): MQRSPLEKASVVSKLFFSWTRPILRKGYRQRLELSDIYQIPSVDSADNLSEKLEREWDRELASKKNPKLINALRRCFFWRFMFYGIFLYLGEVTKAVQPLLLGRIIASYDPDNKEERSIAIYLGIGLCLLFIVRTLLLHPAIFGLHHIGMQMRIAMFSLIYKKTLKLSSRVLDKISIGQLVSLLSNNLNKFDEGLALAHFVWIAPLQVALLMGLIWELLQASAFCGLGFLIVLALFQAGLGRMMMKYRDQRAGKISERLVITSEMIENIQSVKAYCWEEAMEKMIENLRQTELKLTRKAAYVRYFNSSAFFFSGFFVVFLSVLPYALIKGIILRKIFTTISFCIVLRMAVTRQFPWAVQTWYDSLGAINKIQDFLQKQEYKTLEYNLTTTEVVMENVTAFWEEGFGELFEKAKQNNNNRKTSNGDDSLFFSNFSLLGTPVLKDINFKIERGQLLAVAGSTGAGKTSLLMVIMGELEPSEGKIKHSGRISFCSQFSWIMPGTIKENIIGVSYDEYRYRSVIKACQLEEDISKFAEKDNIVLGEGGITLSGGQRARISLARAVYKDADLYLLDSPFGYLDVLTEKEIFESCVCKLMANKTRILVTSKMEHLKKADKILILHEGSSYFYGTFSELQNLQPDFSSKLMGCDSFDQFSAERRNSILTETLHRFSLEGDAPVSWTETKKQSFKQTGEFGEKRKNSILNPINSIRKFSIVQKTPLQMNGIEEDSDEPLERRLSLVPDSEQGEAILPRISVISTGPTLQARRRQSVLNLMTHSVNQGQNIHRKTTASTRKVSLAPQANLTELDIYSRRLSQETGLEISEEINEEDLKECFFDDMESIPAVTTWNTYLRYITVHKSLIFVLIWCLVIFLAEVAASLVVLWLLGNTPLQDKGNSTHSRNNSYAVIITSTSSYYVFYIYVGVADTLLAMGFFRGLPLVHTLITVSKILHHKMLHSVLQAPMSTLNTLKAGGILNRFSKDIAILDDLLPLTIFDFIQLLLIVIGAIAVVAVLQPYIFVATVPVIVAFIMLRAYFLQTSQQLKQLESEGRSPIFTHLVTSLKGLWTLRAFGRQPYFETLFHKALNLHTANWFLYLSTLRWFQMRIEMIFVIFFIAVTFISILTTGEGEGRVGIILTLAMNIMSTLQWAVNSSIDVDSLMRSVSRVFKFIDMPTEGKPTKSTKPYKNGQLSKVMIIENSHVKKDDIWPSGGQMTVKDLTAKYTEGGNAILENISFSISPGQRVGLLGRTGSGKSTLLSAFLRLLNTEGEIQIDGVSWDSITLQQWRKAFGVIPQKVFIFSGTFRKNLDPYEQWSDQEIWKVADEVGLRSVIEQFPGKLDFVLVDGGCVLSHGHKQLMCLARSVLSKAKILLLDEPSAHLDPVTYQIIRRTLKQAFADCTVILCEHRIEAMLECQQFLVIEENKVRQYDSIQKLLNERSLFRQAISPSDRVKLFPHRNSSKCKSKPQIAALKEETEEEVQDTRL

Row | Compound | EC30
1 | CC(C)(C)c1ccc(C(=O)NS(=O)(=O)c2cccc(N)n2)c(Oc2ccc(F)cc2F)n1 [Compound 829, N-[(6-amino-2-pyridyl)sulfonyl]-6-tert-butyl-2-(2,4-difluorophenoxy)pyridine-3-carboxamide] | +++ (“+++” means <3 uM)
2 | COc1cc(F)ccc1-c1ccc(C(=O)NS(=O)(=O)c2cccc(N)n2)c(Oc2c(C)cc(C)cc2C)n1 [Compound 830, N-[(6-amino-2-pyridyl)sulfonyl]-6-(4-fluoro-2-methoxy-phenyl)-2-(2,4,6-trimethylphenoxy)pyridine-3-carboxamide] | +++ (“+++” means <3 uM)
3 | CCc1ccc(-c2ccc(C(=O)NS(=O)(=O)c3ccc[nH]c3=O)c(Oc3c(C)cc(C)cc3C)n2)cc1 [Compound 831, 6-(4-ethylphenyl)-N-[(2-oxo-1H-pyridin-3-yl)sulfonyl]-2-(2,4,6-trimethylphenoxy)pyridine-3-carboxamide] | +++ (“+++” means <3 uM)
4 | CCCOc1cc(-c2ccc(C(=O)NS(=O)(=O)c3ccn[nH]3)c(N3[C@H](C)CC[C@@H]3C)n2)ccc1Cl [Compound 832, 6-(4-chloro-3-propoxy-phenyl)-2-[(2R,5S)-2,5-dimethylpyrrolidin-1-yl]-N-(1H-pyrazol-5-ylsulfonyl)pyridine-3-carboxamide] | +++ (“+++” means <3 uM)
5 | COc1cccc(-c2nc(N3CC(C)CC3(C)C)c(C(=O)NS(=O)(=O)c3cccc(N)n3)cc2C)c1 (centres unmarked) [Compound 833, N-[(6-amino-2-pyridyl)sulfonyl]-6-(3-methoxyphenyl)-5-methyl-2-(2,2,4-trimethylpyrrolidin-1-yl)pyridine-3-carboxamide] | +++ (“+++” means <3 uM)
6 | CC(C)Oc1ccc(-c2ccc(C(=O)NS(=O)(=O)c3cccc(N)n3)c(N3CCCC3(C)C)n2)cn1 [Compound 834, N-[(6-amino-2-pyridyl)sulfonyl]-2-(2,2-dimethylpyrrolidin-1-yl)-6-(6-isopropoxy-3-pyridyl)pyridine-3-carboxamide] | +++ (“+++” means <3 uM)
7 | CCOc1cc(F)cc(-c2ccc(C(=O)NS(=O)(=O)c3ccc[nH]c3=O)c(Oc3c(C)cc(C)cc3C)n2)c1 [Compound 835, 6-(3-ethoxy-5-fluoro-phenyl)-N-[(2-oxo-1H-pyridin-3-yl)sulfonyl]-2-(2,4,6-trimethylphenoxy)pyridine-3-carboxamide] | ++ (“++” means between 3 uM and 10 uM)
8 | CC(C)Oc1ccc(-c2ccc(C(=O)NS(=O)(=O)c3cccc(N)n3)c(N3CCC[C@H](C)C3)n2)cn1 [Compound 836, N-[(6-amino-2-pyridyl)sulfonyl]-6-(6-isopropoxy-3-pyridyl)-2-[(3S)-3-methyl-1-piperidyl]pyridine-3-carboxamide] | ++ (“++” means between 3 uM and 10 uM)
9 | CC(C)COc1cc(F)cc(-c2ccc(C(=O)NS(=O)(=O)c3cccc(N)n3)c(N3CCCC(C)C3C)n2)c1 (centres unmarked) [Compound 837, N-[(6-amino-2-pyridyl)sulfonyl]-2-(2,3-dimethyl-1-piperidyl)-6-(3-fluoro-5-isobutoxy-phenyl)pyridine-3-carboxamide] | +++ (“+++” means <3 uM)
10 | Cc1cc(C)c(CN2CCc3ccccc3CC2C(=O)NS(=O)(=O)c2cccc(NCCO)n2)c(C)c1 (centres unmarked) [Compound 838, N-[[6-(2-hydroxyethylamino)-2-pyridyl]sulfonyl]-3-[(2,4,6-trimethylphenyl)methyl]-1,2,4,5-tetrahydro-3-benzazepine-4-carboxamide] | ++ (“++” means between 3 uM and 10 uM)
11 | COc1ccc(-c2ccc(C(=O)NS(=O)(=O)c3ccc[nH]c3=O)c(Oc3c(C)cc(C)cc3C)n2)c(F)c1 [Compound 839, 6-(2-fluoro-4-methoxy-phenyl)-N-[(2-oxo-1H-pyridin-3-yl)sulfonyl]-2-(2,4,6-trimethylphenoxy)pyridine-3-carboxamide] | ++ (“++” means between 3 uM and 10 uM)
12 | Cc1cc(C)c(CN2C(C(=O)NS(=O)(=O)c3cc(N)ccc3C)c3ccccc3C2(C)C)c(C)c1 (centres unmarked) [Compound 840, N-(5-amino-2-methyl-phenyl)sulfonyl-3,3-dimethyl-2-[(2,4,6-trimethylphenyl)methyl]isoindoline-1-carboxamide] | +++ (“+++” means <3 uM)
13 | Cc1cc(C)c(Oc2nc(C)c(C)cc2C(=O)NS(=O)(=O)c2cccc(N)n2)c(C)c1 [Compound 841, N-[(6-amino-2-pyridyl)sulfonyl]-5,6-dimethyl-2-(2,4,6-trimethylphenoxy)pyridine-3-carboxamide] | +++ (“+++” means <3 uM)
14 | CC(C)COc1cc(F)cc(-c2ccc(C(=O)NS(=O)(=O)c3nc(N)cs3)c(N3CC(C)CC3(C)C)n2)c1 (centres unmarked) [Compound 842, N-(4-aminothiazol-2-yl)sulfonyl-6-(3-fluoro-5-isobutoxy-phenyl)-2-(2,2,4-trimethylpyrrolidin-1-yl)pyridine-3-carboxamide] | +++ (“+++” means <3 uM)
15 | CCOC1CCCN(c2nc(-c3cc(F)cc(OCC(C)C)c3)ccc2C(=O)NS(=O)(=O)c2ccn[nH]2)C1 (centres unmarked) [Compound 843, 2-(3-ethoxy-1-piperidyl)-6-(3-fluoro-5-isobutoxy-phenyl)-N-(1H-pyrazol-5-ylsulfonyl)pyridine-3-carboxamide] | ++ (“++” means between 3 uM and 10 uM)
16 | CC1CN(c2nc(-c3cnc(OC(C)C)nc3)ccc2C(=O)NS(=O)(=O)c2cccc(N)n2)C(C)(C)C1 (centres unmarked) [Compound 844, N-[(6-amino-2-pyridyl)sulfonyl]-6-(2-isopropoxypyrimidin-5-yl)-2-(2,2,4-trimethylpyrrolidin-1-yl)pyridine-3-carboxamide] | ++ (“++” means between 3 uM and 10 uM)
17 | CC(C)COc1cc(F)cc(-c2ccc(C(=O)NS(=O)(=O)c3cccc(N)n3)c(N3CCCC34CCC4)n2)c1 [Compound 845, N-[(6-amino-2-pyridyl)sulfonyl]-2-(8-azaspiro[3.4]octan-8-yl)-6-(3-fluoro-5-isobutoxy-phenyl)pyridine-3-carboxamide] | +++ (“+++” means <3 uM)
18 | CC(C)CC(C)Oc1cccc(-c2ccc(C(=O)NS(=O)(=O)c3cccc(N)n3)c(N3CCCC3(C)C)n2)n1 (centres unmarked) [Compound 846, N-[(6-amino-2-pyridyl)sulfonyl]-6-[6-(1,3-dimethylbutoxy)-2-pyridyl]-2-(2,2-dimethylpyrrolidin-1-yl)pyridine-3-carboxamide] | +++ (“+++” means <3 uM)
19 | CC1CCN(c2nc(-c3ccc(C(C)C)cc3)ccc2C(=O)NS(=O)(=O)c2cccc(N)n2)CC1 [Compound 847, N-[(6-amino-2-pyridyl)sulfonyl]-6-(4-isopropylphenyl)-2-(4-methyl-1-piperidyl)pyridine-3-carboxamide] | +++ (“+++” means <3 uM)
20 | CC(C)CCOc1ccc(-c2ccc(C(=O)NS(=O)(=O)c3cccc(N)n3)c(N3CC(C)CC3(C)C)n2)cn1 (centres unmarked) [Compound 848, N-[(6-amino-2-pyridyl)sulfonyl]-6-(6-isopentyloxy-3-pyridyl)-2-(2,2,4-trimethylpyrrolidin-1-yl)pyridine-3-carboxamide] | +++ (“+++” means <3 uM)
21 | Cc1ccc(-c2nc(-c3cc(F)cc(OC(C)C)c3)ccc2C(=O)NS(=O)(=O)c2ccn[nH]2)cc1 [Compound 849, 6-(3-fluoro-5-isopropoxy-phenyl)-2-(p-tolyl)-N-(1H-pyrazol-5-ylsulfonyl)pyridine-3-carboxamide] | + (“+” means greater than 10 uM)
22 | CC(C)COc1cc(F)cc(-c2ccc(C(=O)NS(=O)(=O)c3cccc(N)n3)c(N3CC(C)(C)CC3(C)C)n2)c1 [Compound 850, N-[(6-amino-2-pyridyl)sulfonyl]-6-(3-fluoro-5-isobutoxy-phenyl)-2-(2,2,4,4-tetramethylpyrrolidin-1-yl)pyridine-3-carboxamide] | +++ (“+++” means <3 uM)
23 | Cc1cc(OCC(C)C)ncc1-c1ccc(C(=O)NS(=O)(=O)c2cccc(N)n2)c(N2CC(C)CC2(C)C)n1 (centres unmarked) [Compound 851, N-[(6-amino-2-pyridyl)sulfonyl]-6-(6-isobutoxy-4-methyl-3-pyridyl)-2-(2,2,4-trimethylpyrrolidin-1-yl)pyridine-3-carboxamide] | +++ (“+++” means <3 uM)
24 | C[C@@H]1CN(c2nc(Cl)ccc2C(=O)NS(=O)(=O)c2cccc(N)n2)C(C)(C)C1 [Compound 852, N-[(6-amino-2-pyridyl)sulfonyl]-6-chloro-2-[(4S)-2,2,4-trimethylpyrrolidin-1-yl]pyridine-3-carboxamide] | ++ (“++” means between 3 uM and 10 uM)
25 | Cc1cc(C)c(Oc2nc(C(F)(F)C(F)(F)F)ccc2C(=O)NS(=O)(=O)c2cccc(N)n2)c(C)c1 [Compound 853, N-[(6-amino-2-pyridyl)sulfonyl]-6-(1,1,2,2,2-pentafluoroethyl)-2-(2,4,6-trimethylphenoxy)pyridine-3-carboxamide] | +++ (“+++” means <3 uM)
26 | Cc1cc(C)c(Oc2ncc(C3(C)CC3)cc2C(=O)NS(=O)(=O)c2cccc(N)n2)c(C)c1 [Compound 854, N-[(6-amino-2-pyridyl)sulfonyl]-5-(1-methylcyclopropyl)-2-(2,4,6-trimethylphenoxy)pyridine-3-carboxamide] | ++ (“++” means between 3 uM and 10 uM)
